Laboratory results: patent US11707440B2 (priority 2017, dated 2023)

Key:
[1] = tested on: subjects with MDD at imminent risk for suicide; assay: Sustained response, response and remission based on MADRS, […]2001; format: in vivo, human; conditions: esketamine 84 mg; at least 50% MADRS reduction from Day 1 4 hours through Day 25
Source text: • a. Changes from baseline to Day 2 and Day 25 for the MADRS total score • b. Changes from baseline to Day 1 4-hours postdose, Day 2 and Day 25 for the MADRS Suicide Item • c. Changes from baseline to Day 1 4-hours postdose, Day 2, and Day 25 for the clinical global judgment of suicide risk from the Suicide Ideation and Behavior Assessment Tool (SIBAT) • d. Sustained response (Onset of Clinical Response) defined as at least 50% reduction from baseline in MADRS total score with onset on Day 1 that is maintained through the end of the double-blind phase (Day 25) • e. Changes from baseline to Day 1 4-hours postdose, Day 2, and Day 25 for the Beck Scale for Suicidal Ideation (BSS) • f. Changes from baseline to Day 1 4-hours postdose and Day 25 for the Beck Hopelessness Scale
Sustained response is defined as at least 50% reduction from baseline in MADRS total score with onset on Day 1: 4 hours postdose that is maintained through the end of the double-blind phase (Day 25). Four subjects in the esketamine 84 mg group and 2 subjects in the placebo group had sustained response throughout the double-blind phase.

[2] = tested on: subjects with MDD at imminent risk for suicide; assay: Beck Scale for Suicidal Ideation (BSS), […]2001; format: in vivo, human; conditions: esketamine 84 mg; Day 1: 4-hours postdose, Day 2 (DB), or End Point (DB)
Protocol: The BSS is a 21-item self-reported instrument to detect and measure the severity of suicidal ideation in adults and adolescents aged 17 years and older. The BSS total score represents the severity of suicide ideation, and it is calculated by summing the ratings of the first 19 items; the total score ranges from 0 to 38, with a higher score representing greater suicide ideation. Increasing scores reflect increases in suicidal risk.

[3] = tested on: subjects with MDD at imminent risk for suicide; assay: MADRS total score, study […]2001; format: in vivo, human; conditions: esketamine 84 mg; baseline to Day 1, 4-hours postdose; ANCOVA
Source text: Primary efficacy variable/Primary Time point: Change from baseline (Day 1, predose) to Day 1, 4-hours postdose in MADRS total score. The MADRS consists of 10 items that cover all of the core depressive symptoms, with each item scoring from 0 (item is not present or is normal) to 6 (severe or continuous presence of the symptom). A higher score represents a more severe condition.
The primary efficacy endpoint is the change in MADRS total score from baseline to Day 1: 4-hours postdose. MADRS total scores range from 0 to 60. […] As this is a phase 2a proof-of-concept study, statistical significance is based on a two-sided alpha level of 0.20. All p-values presented in this document are two-sided.

[4] = tested on: subjects with MDD at imminent risk for suicide; conditions: esketamine 84 mg

SMILES: CN[C@]1(c2ccccc2Cl)CCCCC1=O [esketamine, (S)-2-(2-chlorophenyl)-2-(methylamino)cyclohexanone]
- Subjects with sustained response throughout the double-blind phase [1]: Four
- BSS total score change vs placebo [2]: no statistically significant differences
- MADRS total score, least-square mean difference (SE) from placebo [3]: −5.3 (2.10)
- Subjects who discontinued from the double-blind phase due to (treatment-emergent) adverse events [4]: 5 subjects
- Subjects with a serious TEAE ([4]; double-blind phase): Four
- Subjects with at least one TEAE ([4]; double-blind phase): 94.3%
- TEAE dissociation ([4]; double-blind phase): 31.4%
- TEAE dizziness ([4]; double-blind phase): 34.3%
- TEAE dysgeusia ([4]; double-blind phase): 31.4%
- TEAE headache ([4]; double-blind phase): 31.4%
- TEAE nausea ([4]; double-blind phase): 37.1%
- TEAE vomiting ([4]; double-blind phase): 20.0%
- Subjects with a serious adverse event ([4]; follow up phase): 1 subjects
- Subjects with at least one adverse event ([4]; follow up phase): 48.1%
